Measured values as given in article PMC11056381, “Characterization and evaluation of cytotoxic and antimicrobial activities of cyclotides from Viola japonica” (Scientific Reports, 2024).
Converted amounts (≈) assume the structure as drawn. Residues, ends and D or L forms follow the SMILES beside them.

Experiments:
[1] = test system: Acinetobacter baumannii (ATCC19606); experiment: microbe, parasite or virus in culture; conditions: Acinetobacter baumannii ATCC19606; 10^6 CFU/ml, 96-well plate, overnight 37 °C, visual clarity; performed at least three times
Source text: (§1) Viba 11, originally discovered in Viola baoshanensis[39] and found in other plants such as Viola tricolor[40], Viola betonicifolia, and Viola philippica, lacks biological activity studies. […] All purified cyclotides underwent antibacterial testing against Gram-positive bacterium Staphylococcus aureus (CMCC(B)26003-2-10) and Bacillus subtilis (CMCC(B)63501), Gram-negative bacteria, including Acinetobacter baumannii (ATCC19606), Escherichia coli (CMCC(B)44102-2-6), and Salmonella paratyphi (CMCC(B)50094-2-9).
(§2) Bacterial fluids are cultured overnight at 37 °C. The next day, the bacterial liquids are diluted to a concentration of 10^6 CFU/ml. Prepare different concentrations of cyclotide drugs and kanamycin sulfate in advance, and sequentially add the drugs and bacterial liquid to the 96-well plate. Negative controls consisted of sterile water and bacterial liquid. The plate is cultured overnight at 37 °C and observe whether the solution remains clear to see the growth of the bacterial suspension. Each test was performed three times at least.

[2] = test system: Bacillus subtilis (CMCC(B)63501); experiment: microbe, parasite or virus in culture; conditions: 10^6 CFU/ml, 96-well plate, overnight 37 °C, visual clarity, performed at least three times
Source text: as §1, §2

[3] = test system: Escherichia coli (CMCC(B)44102-2-6); experiment: microbe, parasite or virus in culture; conditions: 10^6 CFU/ml, 96-well plate, overnight 37 °C, visual clarity, performed at least three times
Source text: as §1, §2

[4] = test system: 4T1 (mouse breast cancer cells); experiment: MTT cytotoxicity assay; format: cell-based; conditions: 4T1 cells, 48 h incubation, mean ± SD of at least three repeats
Method: (§3) Five types of cells, namely A549 (human non-small cell lung cancer cells), T24 (human bladder cancer cells), 4T1 (mouse breast cancer cells), 7402 (human hepatocellular carcinoma cells), and THLE-3 (human hepatocytes cells), are selected for evaluating the cytotoxicity of viba 11, cycloviolacin O2, and vija 10 using the MTT (3-(4,5-dimethylthiazol-2-yl)-2,5-diphenyltetrazolium bromide) reagent.
(§4) To determine cell toxicity using MTT assay, cells are seeded in a 96-well plate and cultured for 24 h. After that, different concentrations of cyclotides are added to the cells and incubated for 48 h. MTT is then added to react with the cells, and after 4 h, the reaction is terminated by discarding the supernatant and adding dimethyl sulfoxide for resuspension. The absorbance at 570 nm is measured after 10 min of shaking at room temperature. Each test was performed three times at least. The data were analyzed using GraphPad Prism 8. During this process, the drug concentrations were transformed into logarithmic form with a base of 10 and plotted on the x-axis. Cell viability (%) = [A (cyclotides) − A (blank)]/[A (control) − A (blank)] × 100, which was represented on the y-axis. Using this method, we determined the IC50 value for each experiment, with each experiment repeated at least three times and the mean value calculated. The error was represented by the standard deviation of the IC50 obtained from three repetitions.

[5] = test system: 7402 (human hepatocellular carcinoma cells); experiment: MTT cytotoxicity assay; format: cell-based; conditions: 7402 cells, 48 h incubation, mean ± SD of at least three repeats
Method: as §3, §4

[6] = test system: A549 (human non-small cell lung cancer cells); experiment: MTT cytotoxicity assay; format: cell-based; conditions: 48 h incubation, mean ± SD of at least three repeats
Method: as §3, §4

[7] = test system: T24 (human bladder cancer cells); experiment: MTT cytotoxicity assay; format: cell-based; conditions: 48 h incubation, mean ± SD of at least three repeats
Method: as §3, §4

[8] = test system: THLE-3 (human hepatocytes cells); experiment: MTT cytotoxicity assay; format: cell-based; conditions: THLE-3 cells, 48 h incubation, mean ± SD of at least three repeats
Method: as §3, §4

CC[C@H](C)[C@@H]1NC(=O)[C@@H]2CSSC[C@@H]3NC(=O)[C@H](C(C)C)NC(=O)[C@H](CCCCN)NC(=O)[C@H](CO)NC(=O)[C@H](CO)NC(=O)[C@@H]4CSSC[C@H](NC(=O)[C@H](CO)NC(=O)[C@H](CCC(=O)O)NC(=O)CNC(=O)[C@H](CSSC[C@H](NC(=O)CNC(=O)[C@H](CC(C)C)NC(=O)[C@H](CC(C)C)NC(=O)[C@H](C)NC(=O)[C@H](CO)NC1=O)C(=O)N[C@@H](CO)C(=O)N4)NC(=O)[C@@H]1CCCN1C(=O)[C@H]([C@@H](C)CC)NC(=O)[C@H](CO)NC(=O)CNC(=O)[C@H](CC(N)=O)NC(=O)[C@H](CCCCN)NC(=O)[C@H](Cc1ccc(O)cc1)NC3=O)C(=O)N[C@@H](C(C)C)C(=O)N[C@@H](Cc1ccccc1)C(=O)N[C@@H]([C@@H](C)CC)C(=O)N1CCC[C@H]1C(=O)N2 [vija 10] (HELM PEPTIDE1{A.L.L.G.C.S.C.S.S.K.V.C.Y.K.N.G.S.I.P.C.G.E.S.C.V.F.I.P.C.I.S}$PEPTIDE1,PEPTIDE1,5:R3-20:R3|PEPTIDE1,PEPTIDE1,7:R3-24:R3|PEPTIDE1,PEPTIDE1,12:R3-29:R3|PEPTIDE1,PEPTIDE1,1:R1-31:R2$$$V2.0)
MIC [1]: 57 µM (≈ 179 µg/mL) | MIC [2]: 14.3 µM (≈ 45 µg/mL) | MIC [3]: > 28.5 µM | IC50 [4]: 0.244 ± 0.02 µM | IC50 [5]: 2.18 ± 0.06 µM | IC50 [6]: 0.733 ± 0.2 µM | IC50 [7]: 3.28 ± 0.15 µM | IC50 [8]: 2.09 ± 0.06 µM
